This note sets out measurements from patent US20240158394A1, “NEK7 INHIBITORS” (Halia Therapeutics, Inc., priority 2022, published 2024).

For assay [1], the target named is full-length recombinant human NEK7 (Homo sapiens (Human), UniProt Q8TDX7). As to the kind of experiment: NEK7 Enzymatic Assay. It is filed as biochemical. The following applies: casein substrate, [33P]-ATP, 2 hours at room temperature. In outline:
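GST-tagged full-length human NEK7 (Sf9-expressed) with 1 mg/mL casein in HEPES pH 7.5/MgCl2 buffer, 1% DMSO; compounds 10 μM–0.5 nM preincubated 20 min at RT. Reaction started with [^33P]-ATP, 2 h at RT, P81 filter radioactivity read; IC50 from % activity remaining versus vehicle.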

The next assay relates to IL-1β release. Description: IL-1β Release Assay. It is filed as cell-based. As to conditions: Homo sapiens; PMA-treated THP-1 cells, 250 ng/mL LPS then 20 μM nigericin; cleaved IL-1β in media. The method, then: Approximately 1.5 million THP-1 cells were plated in each well of a 6-well TC plate and incubated with 40 nM PMA in RPMI (10% FBS, 1% Penstrep) for 24 hours. The media was then removed, and cells were rested in RPMI (10% FBS, 1% Penstrep) for 24 hours after which time the media was removed and cells were pre-treated for 2 hours with various concentrations of compounds of interest (typically serial 3-fold dilution in RPMI+5% FBS, concentrations ranging from 1 μM to 0.5 nM) in RPMI (5% FBS). The media was again removed, and cells were incubated with 250 ng/mL LPS and compounds of interest (concentrations as above) in RMPI (5% FBS) for 2 hours. The media was removed for a last time and cells were incubated with 20 μM nigericin and compounds of interest (concentrations as above) in Opti-MEM for 30 minutes. Cell media was then collected and the amount of cleaved IL-1β was determined using a JESS instrument (Protein Simple) and standard protocols. Cleaved Il-1β antibody was obtained from Cell Signaling (catalogue #83186S) and was used at 1:20 dilution in antibody diluent 2. Protein Simple 1× anti-Rabbit HRP secondary antibody was used along with Protein Simple luminol and peroxide for chemiluminescent detection. Primary antibody incubation time was increased from 30 minutes to 60 minutes.

Bounds are passed on as bounds.

full-length recombinant human NEK7, sequence (Q8TDX7 whole entry): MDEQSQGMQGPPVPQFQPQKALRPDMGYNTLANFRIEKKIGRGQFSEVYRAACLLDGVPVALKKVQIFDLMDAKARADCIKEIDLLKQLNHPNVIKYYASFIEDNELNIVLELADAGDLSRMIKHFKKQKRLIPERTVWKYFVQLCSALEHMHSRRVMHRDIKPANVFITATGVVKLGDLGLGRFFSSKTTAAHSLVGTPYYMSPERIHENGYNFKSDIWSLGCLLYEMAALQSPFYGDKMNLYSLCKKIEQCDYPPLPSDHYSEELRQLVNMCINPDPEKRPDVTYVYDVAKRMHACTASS

By IC50 is commonly meant the concentration at which inhibition is half-maximal. As for `CN1CCC(Oc2ccc(NC(=O)Nc3ccc(-c4cn(C5CC5)c5ncnc(N)c45)c4nonc34)cc2C(F)(F)F)CC1` [Example I-79, 1-(7-(4-amino-7-cyclopropyl-7H-pyrrolo[2,3-d]pyrimidin-5-yl)benzo[c][1,2,5]oxadiazol-4-yl)-3-(4-((1-methylpiperidin-4-yl)oxy)-3-(trifluoromethyl)-phenyl)urea], the IC50 is < 200 nM in assay [1] and < 100 nM in the assay on IL-1β release.
For `CC(C)(C)c1cc(NC(=O)Nc2ccc(-c3cn(C4CC4)c4ncnc(N)c34)n3ccnc23)on1` [Example I-17, 1-(5-(4-amino-7-cyclopropyl-7H-pyrrolo[2,3-d]pyrimidin-5-yl)imidazo[1,2-a]pyridin-8-yl)-3-(3-(tert-butyl)isoxazol-5-yl)urea], in that order: < 200 nM and < 100 nM.
Consider `CC(C)(C)c1cc(NC(=O)Nc2ccc(-c3cn(C4CC4)c4ncnc(N)c34)n3ccnc23)n(-c2ccccc2)n1` [Example I-11, 1-(5-(4-amino-7-cyclopropyl-7H-pyrrolo[2,3-d]pyrimidin-5-yl)imidazo[1,2-a]pyridin-8-yl)-3-(3-(tert-butyl)-1-phenyl-1H-pyrazol-5-yl)urea], for which the values for the IC50 (in assay [1]; in the assay with IL-1β release) were < 200 nM and < 100 nM, respectively.
Consider `CN1CCN(Cc2ccc(NC(=O)Nc3ncc(-c4cn(C5CC5)c5ncnc(N)c45)n4ccnc34)cc2C(F)(F)F)CC1` [Example I-51, 1-(5-(4-amino-7-cyclopropyl-7H-pyrrolo[2,3-d]pyrimidin-5-yl)imidazo[1,2-a]pyrazin-8-yl)-3-(4-((4-methylpiperazin-1-yl)methyl)-3-(trifluorometh-yl)phenyl)urea], for which the IC50 in assay [1] is > 2000 nM; in the assay with IL-1β release it was > 1000 nM.
Turning to `CC1(c2cc(NC(=O)Nc3ccc(-c4cn(C5CC5)c5ncnc(N)c45)c4ccncc34)on2)CC1` [Example I-6, 1-(5-(4-amino-7-cyclopropyl-7H-pyrrolo[2,3-d]pyrimidin-5-yl)isoquinolin-8-yl)-3-(3-(1-methylcyclopropyl)isoxazol-5-yl)urea], the IC50 in assay [1] lay within 200 to 500 nM.
The same measure, in the same setting: with `CCN1CCC(Oc2ccc(NC(=O)Nc3ccc(-c4cn(C(C)C)c5ncnc(N)c45)n4ccnc34)cc2C(F)(F)F)CC1` [Example I-136, 1-(5-(4-amino-7-isopropyl-7H-pyrrolo[2,3-d]pyrimidin-5-yl)imidazo[1,2-a]pyridin-8-yl)-3-(4-((1-ethylpiperidin-4-yl)oxy)-3-(trifluoromethyl)-phenyl)urea] the figure was < 200 nM.
On the same count and under the same terms, the result for `COCCN1CCN(Cc2ccc(NC(=O)Nc3ccc(-c4cn(C5CC5)c5ncnc(N)c45)n4ccnc34)cc2C(F)(F)F)CC1` [Example I-40, 1-(5-(4-amino-7-cyclopropyl-7H-pyrrolo[2,3-d]pyrimidin-5-yl)imidazo[1,2-a]pyridin-8-yl)-3-(4-((4-(2-methoxyeth-yl)piperazin-1-yl)methyl)-3-(trifluoromethyl)phenyl)urea] reads < 200 nM.
On the same count and under the same terms, the result for `CN1CCN(Cc2ccc(NC(=O)Nc3ccc(-c4cn(C5CCC5)c5ncnc(N)c45)n4ccnc34)cc2C(F)(F)F)CC1` [Example I-129, 1-(5-(4-amino-7-cyclobutyl-7H-pyrrolo[2,3-d]pyrimidin-5-yl)imidazo[1,2-a]pyridin-8-yl)-3-(4-((4-methylpiperazin-1-yl)methyl)-3-(trifluorometh-yl)phenyl)urea] reads < 200 nM; that for `Cn1cc(-c2ccc(NC(=O)Nc3cc(C4(C(F)(F)F)CC4)on3)c3nccn23)c2c(N)ncnc21` [Example I-126, 1-(5-(4-amino-7-methyl-7H-pyrrolo[2,3-d]pyrimidin-5-yl)imidazo[1,2-a]pyridin-8-yl)-3-(5-(1-(trifluoromethyl)-cyclopropyl)isoxazol-3-yl)urea], < 200 nM; that for `CCN1CCC(Oc2ccc(NC(=O)Nc3ccc(-c4cn(C5CC5)c5ncnc(N)c45)c4cnoc34)cc2C(F)(F)F)CC1` [Example I-125, 1-(4-(4-amino-7-cyclopropyl-7H-pyrrolo[2,3-d]pyrimidin-5-yl)benzo[d]isoxazol-7-yl)-3-(4-((1-ethylpiperidin-4-yl)oxy)-3-(trifluoromethyl)phenyl)urea], 200 to 500 nM.
As to `Nc1ncnc2c1c(-c1ccc(NC(=O)Nc3cc(C4(C(F)(F)F)CC4)no3)c3ncccc13)cn2C1CC1` [Example I-3, 1-(5-(4-amino-7-cyclopropyl-7H-pyrrolo[2,3-d]pyrimidin-5-yl)quinolin-8-yl)-3-(3-(1-(trifluoromethyl)cyclopropyl)-isoxazol-5-yl)urea], the half-inhibitory concentration (IC50) in assay [1] was > 2000 nM.
On the same count and under the same terms, the result for `CN1CCN(Cc2ccc(NC(=O)Nc3ccc(-c4cn(C)c5ncnc(N)c45)n4ccnc34)cc2C(F)(F)F)CC1` [Example I-127, 1-(5-(4-amino-7-methyl-7H-pyrrolo[2,3-d]pyrimidin-5-yl)imidazo[1,2-a]pyridin-8-yl)-3-(4-((4-methylpiperazin-1-yl)methyl)-3-(trifluorometh-yl)phenyl)urea] reads < 200 nM; that for `CC(C)(C)c1cc(NC(=O)Nc2ccc(-c3cn(C4CC4)c4ncnc(N)c34)c3ccncc23)on1` [Example I-5, 1-(5-(4-amino-7-cyclopropyl-7H-pyrrolo[2,3-d]pyrimidin-5-yl)isoquinolin-8-yl)-3-(3-(tert-butyl)isoxazol-5-yl)urea], < 200 nM.
On the same count and under the same terms, the result for `CN1CCN(Cc2ccc(NC(=O)Nc3ccc(-c4cn(CCO)c5ncnc(N)c45)n4ccnc34)cc2C(F)(F)F)CC1` [Example I-130, 1-(5-(4-amino-7-(2-hydroxy-ethyl)-7H-pyrrolo[2,3-d]pyr-imidin-5-yl)imidazo[1,2-a]-pyridin-8-yl)-3-(4-((4-meth-ylpiperazin-1-yl)methyl)-3-(trifluoromethyl)phenyl)urea] reads < 200 nM; that for `CN1CCN(Cc2ccc(NC(=O)Nc3ccc(-c4cn(C5CC(O)C5)c5ncnc(N)c45)n4ccnc34)cc2C(F)(F)F)CC1` (stereo not shown) [Example I-132, 1-(5-(4-amino-7-(3-hydroxy-cyclobutyl)-7H-pyrrolo[2,3-d]pyrimidin-5-yl)imidazo[1,2-a]pyridin-8-yl)-3-(4-((4-meth-ylpiperazin-1-yl)methyl)-3-(trifluoromethyl)phenyl)urea], < 200 nM; that for `Nc1ncnc2c1c(-c1ccc(NC(=O)Nc3cc(C4CC4)no3)c3nccn13)cn2C1CC1` [Example I-119, 1-(5-(4-amino-7-cyclopropyl-7H-pyrrolo[2,3-d]pyrimidin-5-yl)imidazo[1,2-a]pyridin-8-yl)-3-(3-cyclopropylisoxazol-5-yl)urea], 200 to 500 nM.
Still for that read-out and setting: the result for `Nc1ncnc2c1c(-c1ccc(NC(=O)Nc3cc(C4(C(F)(F)F)CC4)on3)c3ocnc13)cn2C1CC1` [Example I-71, 1-(4-(4-amino-7-cyclopropyl-7H-pyrrolo[2,3-d]pyrimidin-5-yl)benzo[d]oxazol-7-yl)-3-(5-(1-(trifluoromethyl)cyclo-propyl)isoxazol-3-yl)urea] reads 500 to 2000 nM; that for `CC(C)n1cc(-c2ccc(NC(=O)Nc3ccc(CN4CCN(C)CC4)c(C(F)(F)F)c3)c3nccn23)c2c(N)ncnc21` [Example I-128, 1-(5-(4-amino-7-isopropyl-7H-pyrrolo[2,3-d]pyrimidin-5-yl)imidazo[1,2-a]pyridin-8-yl)-3-(4-((4-methylpiperazin-1-yl)methyl)-3-(trifluorometh-yl)phenyl)urea], < 200 nM.
